{"source": "patent US20100029716A1", "about": "“NOVEL 1,2,3,4- TETRAHYDROQUINOLINE DERIVATIVES” (CONCERT PHARMACEUTICALS, INC., priority 2006, published 2010)", "origin": "cited, not measured here", "key": {"[1]": {"settings": "healthy volunteers, 14-day dosing period"}, "[2]": {"test_system": "atherosclerotic lesions", "settings": "rabbit model of atherosclerosis"}, "[3]": {"settings": "conventional formulations"}, "[4]": {"target": "T1, human CETP (Homo sapiens, UniProt P11597)", "T1 construct": "host or cells: transgenic mice expressing human CETP and apolipoprotein A1 (hCETP mice)", "T1 sequence (P11597 18-493)": "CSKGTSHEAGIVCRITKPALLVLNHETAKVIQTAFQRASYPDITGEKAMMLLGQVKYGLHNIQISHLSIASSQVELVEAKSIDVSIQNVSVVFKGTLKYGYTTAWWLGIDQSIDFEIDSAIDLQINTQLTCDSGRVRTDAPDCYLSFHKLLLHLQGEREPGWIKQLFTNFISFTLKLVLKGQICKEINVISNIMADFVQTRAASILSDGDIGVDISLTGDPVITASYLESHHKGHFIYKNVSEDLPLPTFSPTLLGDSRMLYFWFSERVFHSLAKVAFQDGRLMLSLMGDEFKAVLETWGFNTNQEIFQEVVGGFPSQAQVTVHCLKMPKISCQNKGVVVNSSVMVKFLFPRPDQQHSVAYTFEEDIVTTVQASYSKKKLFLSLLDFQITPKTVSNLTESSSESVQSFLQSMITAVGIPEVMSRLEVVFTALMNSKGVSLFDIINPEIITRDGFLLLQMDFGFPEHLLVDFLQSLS", "settings": "transgenic hCETP mice"}}, "data": [{"smiles": "CCOC(=O)N1c2ccc(C(F)(F)F)cc2[C@@H](N(Cc2cc(C(F)(F)F)cc(C(F)(F)F)c2)C(=O)OC)C[C@H]1CC", "note": "[Compound 1, (2R,4S)-ethyl 4-((3,5-bis(trifluoromethyl)benzyl)-(methoxycarbonyl)amino)-2-ethyl-6-(trifluoromethyl)-3,4-dihydroquinoline-1(2H)-carboxylate]", "values": [{"measurement": "increase of HDL cholesterol levels", "setting": "[1]", "value": "up to 91%"}, {"measurement": "reduction of LDL cholesterol", "setting": "[1]", "value": "up to 42%"}, {"measurement": "formation of atherosclerotic lesions", "setting": "[2]", "value": "reduce the formation of atherosclerotic lesions"}, {"measurement": "aqueous solubility", "value": "poor"}, {"measurement": "oral bioavailability", "setting": "[3]", "value": "low"}, {"measurement": "rate of cholesterol oleate transfer from LDL donor particles to HDL", "setting": "[4]", "value": "decreased rates"}, {"measurement": "HDL cholesterol", "setting": "[4]; multiple dosing", "value": "increased HDL cholesterol"}]}]}
